Test [1] addresses T1, telomerase reverse transcriptase (TERT) (Homo sapiens, UniProt O14746). Kind of test: microscale thermophoresis; also microarray displacement of Cy5 primer cocktail (EC50 […]) and TRAP inhibition in cell lysate. The test is classed as binding. Details: recombinant His-tagged full-length human TERT (pET28aTERT, E. coli, urea/N-lauroylsarcosine solubilized, Ni-IMAC). (MST reads how a fluorescent partner responds to local heating, with and without ligand.)

Test [2] concerns the target T1, telomerase reverse transcriptase (TERT). Description: microarray displacement of Cy5 primer cocktail from spotted TERT and lysates; TRAP inhibition in lysate at […]. It is filed as binding. Details: recombinant His-tagged full-length human TERT (pET28aTERT, E. coli) and cell lysates.

Molecules are shown by their SMILES.

T1 sequence (O14746 whole entry): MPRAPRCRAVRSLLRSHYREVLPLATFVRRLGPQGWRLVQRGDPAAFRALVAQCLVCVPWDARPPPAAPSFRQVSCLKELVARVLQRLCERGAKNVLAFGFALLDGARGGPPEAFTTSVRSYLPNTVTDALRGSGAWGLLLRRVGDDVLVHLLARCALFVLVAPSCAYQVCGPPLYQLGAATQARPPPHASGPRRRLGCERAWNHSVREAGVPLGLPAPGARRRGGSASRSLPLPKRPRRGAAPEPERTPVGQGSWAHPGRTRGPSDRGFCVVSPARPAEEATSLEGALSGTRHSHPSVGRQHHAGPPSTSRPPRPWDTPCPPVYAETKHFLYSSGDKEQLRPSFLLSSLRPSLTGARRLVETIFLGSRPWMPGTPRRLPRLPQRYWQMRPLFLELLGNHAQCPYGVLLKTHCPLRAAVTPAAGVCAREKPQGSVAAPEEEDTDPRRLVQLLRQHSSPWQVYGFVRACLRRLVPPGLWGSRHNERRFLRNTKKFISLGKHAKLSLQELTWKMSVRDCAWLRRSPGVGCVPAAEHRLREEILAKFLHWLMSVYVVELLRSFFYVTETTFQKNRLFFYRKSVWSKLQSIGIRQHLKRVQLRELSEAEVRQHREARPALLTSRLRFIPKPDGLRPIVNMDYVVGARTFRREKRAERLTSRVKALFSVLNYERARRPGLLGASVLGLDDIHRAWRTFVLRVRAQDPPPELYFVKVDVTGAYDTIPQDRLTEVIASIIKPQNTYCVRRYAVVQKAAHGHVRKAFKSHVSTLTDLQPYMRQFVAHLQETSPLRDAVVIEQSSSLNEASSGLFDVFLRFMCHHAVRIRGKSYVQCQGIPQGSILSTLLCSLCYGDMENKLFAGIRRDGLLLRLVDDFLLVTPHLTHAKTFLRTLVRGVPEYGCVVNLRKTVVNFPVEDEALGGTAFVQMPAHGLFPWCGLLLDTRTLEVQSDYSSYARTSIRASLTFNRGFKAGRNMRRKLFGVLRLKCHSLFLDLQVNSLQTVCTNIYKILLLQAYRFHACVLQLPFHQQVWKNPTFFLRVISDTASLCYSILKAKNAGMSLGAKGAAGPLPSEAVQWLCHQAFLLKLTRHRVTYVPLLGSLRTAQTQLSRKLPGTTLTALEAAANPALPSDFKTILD

As usually defined, the Kd is the equilibrium constant for the complex coming apart. For `O=C(O[C@@H]1Cc2c(O)cc(O)cc2O[C@@H]1c1cc(O)c(O)c(O)c1)c1cc(O)c(O)c(O)c1` [EGCG, epigallocatechin-3-gallate], in test [1], the Kd is approximately 26 µM. For orientation: EC50 means the concentration at which the effect is half-maximal. With `C=C1[C@@H](C)C2[C@H](Cc3ccc(I)cc3)NC(=O)[C@@]23C(/C=C/C[C@H](C)C[C@@](C)(O)/C=C/[C@H]3OC(C)=O)[C@@H]1O` (some centres unmarked) [compound 7, 4’-iodo cytochalasin H], in test [2], the EC50 lay within 2.76 to 4.41 µM.

For the origin of these results see paper PMC12137546, “Development of a microarray based telomerase binding assay reveals unusual binding of a cytochalasin derivative” (Scientific Reports, 2025).
